The values below come from paper PMC5811539, “Expression, Purification and Characterization of the Human Cannabinoid 1 Receptor” (Scientific Reports, 2018).

One assay deals with hΔCB1. Details: method as in unpublished results. Particulars: HEK293 cells; ref unpublished results; cited from earlier work.
The next assay relates to T1, hΔCB1 receptor.
T1 construct: hCB1 receptor with an N-terminal 102 amino acid truncated residues (hΔCB1); host or cells: cell-free expression with nanodiscs
Description: Saturation binding assays (filtration and size-exclusion) with cell-free expressed hΔCB1. Details: species or system human. As to conditions: cell-free expressed from pET15hΔCB1his6 and pET26shΔCB1his6, with nanodiscs, no T4 lysozyme. The procedure:
The radioactive binding assays were performed with [^3H] CP-55,940 radioligand.
(In general: SEC sorts molecules by how far they enter the pores of the column.)

Each structure is given as a SMILES string.

As to `CCCCCCC(C)(C)c1ccc([C@@H]2C[C@H](O)CC[C@H]2CCCO)c(O)c1` [CP-55,940], the “effect of N-terminal 102 amino acid truncation on binding” value in the assay with hΔCB1 is listed as “truncation does not affect the binding”. For `CCCCCCC(C)(C)c1ccc([C@@H]2C[C@H](O)CC[C@H]2CCCO)c(O)c1` [[^3H] CP-55,940], in the assay with hΔCB1 receptor, the specific binding entry is given as “did not show any specific binding”.
